Columns and labels:
NHEK cells = experiment: UV-induced apoptosis, FACS Annexin V+, TMRE-low; assay type: cell-based, human; settings: 1 kJ/m^2 UVB, 1 μM, 24 hr, vs DMSO
phospho-JNK = experiment: Immunohistochemistry of cSCC from Hairless mice; assay type: in vivo, mouse; settings: p=0.046
Text: (§1) We also used the Hairless mouse model of squamous cell carcinoma to assess whether PLX4720 would affect UV-driven tumor development. This is particularly relevant since it appears that UV exposure is an important initiating event in BRAFi-accelerated cSCC ([Su et al., 2012]). Unlike the DMBA/TPA model, in which lesions almost universally harbor Hras mutations ([Brown et al., 1990]), the Hairless model has a very low frequency of Ras mutation in papillomas and carcinomas ([van Kranen et al., 1995]), more similar to sporadic human cSCC. […]
(§2) Figure 5. […] (A and B) cDNA was reverse-transcribed from total RNA, PCR-amplified with the above primers (B) and analyzed by Sanger sequencing for mutations in both directions. No mutations in Hras, Kras, or Nras were detected in any of the papillomas (n = 5) or carcinomas (n = 3) isolated from PLX4720-treated mice. […]
(§3) Cutaneous squamous cell carcinomas biopsied from patients treated with or without BRAF-inhibitor were obtained either under clinical trials (Roche) or separate IRB approval (LAB08-0750). Staining levels were quantified by counting positively labeled cells and dividing by the total area of the tumor tissue within each sample. To measure tumor areas, all samples were photographed, tumor cells outlined, and total pixel numbers calculated using included image analysis tools in Adobe Photoshop and standardized to a hemacytometer to convert to mm^2. […]

cleaved caspase 3 = experiment: Immunohistochemistry of cSCC from Hairless mice; assay type: in vivo, mouse; settings: p=0.019
Text: as §1, §2, §3

SRMS = SRMS (Homo sapiens, UniProt Q9H3Y6); design: method as in Bollag et al., 2010; settings: ref Bollag et al., 2010; read-out: Published biochemical IC50; cited from earlier work
SRMS, sequence (Q9H3Y6 whole entry): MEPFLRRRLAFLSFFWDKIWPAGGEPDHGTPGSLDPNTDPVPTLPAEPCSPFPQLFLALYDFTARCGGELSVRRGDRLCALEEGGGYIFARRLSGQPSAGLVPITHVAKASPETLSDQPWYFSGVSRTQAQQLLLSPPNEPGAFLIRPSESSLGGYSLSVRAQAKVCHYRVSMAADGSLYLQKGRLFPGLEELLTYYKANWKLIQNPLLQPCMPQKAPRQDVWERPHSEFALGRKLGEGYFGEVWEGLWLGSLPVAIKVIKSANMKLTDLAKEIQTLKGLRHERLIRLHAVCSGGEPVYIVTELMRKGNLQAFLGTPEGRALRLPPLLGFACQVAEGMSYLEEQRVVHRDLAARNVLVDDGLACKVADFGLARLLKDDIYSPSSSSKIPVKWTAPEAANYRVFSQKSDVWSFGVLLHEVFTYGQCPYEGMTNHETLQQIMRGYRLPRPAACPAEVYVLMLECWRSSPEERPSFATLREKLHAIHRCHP

ASK1 (MAP3K5) = molecular target: T1, ASK1 (MAP3K5) (Homo sapiens, UniProt Q99683); design: method as in Bollag et al., 2010; settings: ref Bollag et al., 2010; read-out: Published biochemical IC50; cited from earlier work
T1 construct: purchased KINOMEscan (DiscoveRx), San Diego, CA
T1 sequence (Q99683 1-1374): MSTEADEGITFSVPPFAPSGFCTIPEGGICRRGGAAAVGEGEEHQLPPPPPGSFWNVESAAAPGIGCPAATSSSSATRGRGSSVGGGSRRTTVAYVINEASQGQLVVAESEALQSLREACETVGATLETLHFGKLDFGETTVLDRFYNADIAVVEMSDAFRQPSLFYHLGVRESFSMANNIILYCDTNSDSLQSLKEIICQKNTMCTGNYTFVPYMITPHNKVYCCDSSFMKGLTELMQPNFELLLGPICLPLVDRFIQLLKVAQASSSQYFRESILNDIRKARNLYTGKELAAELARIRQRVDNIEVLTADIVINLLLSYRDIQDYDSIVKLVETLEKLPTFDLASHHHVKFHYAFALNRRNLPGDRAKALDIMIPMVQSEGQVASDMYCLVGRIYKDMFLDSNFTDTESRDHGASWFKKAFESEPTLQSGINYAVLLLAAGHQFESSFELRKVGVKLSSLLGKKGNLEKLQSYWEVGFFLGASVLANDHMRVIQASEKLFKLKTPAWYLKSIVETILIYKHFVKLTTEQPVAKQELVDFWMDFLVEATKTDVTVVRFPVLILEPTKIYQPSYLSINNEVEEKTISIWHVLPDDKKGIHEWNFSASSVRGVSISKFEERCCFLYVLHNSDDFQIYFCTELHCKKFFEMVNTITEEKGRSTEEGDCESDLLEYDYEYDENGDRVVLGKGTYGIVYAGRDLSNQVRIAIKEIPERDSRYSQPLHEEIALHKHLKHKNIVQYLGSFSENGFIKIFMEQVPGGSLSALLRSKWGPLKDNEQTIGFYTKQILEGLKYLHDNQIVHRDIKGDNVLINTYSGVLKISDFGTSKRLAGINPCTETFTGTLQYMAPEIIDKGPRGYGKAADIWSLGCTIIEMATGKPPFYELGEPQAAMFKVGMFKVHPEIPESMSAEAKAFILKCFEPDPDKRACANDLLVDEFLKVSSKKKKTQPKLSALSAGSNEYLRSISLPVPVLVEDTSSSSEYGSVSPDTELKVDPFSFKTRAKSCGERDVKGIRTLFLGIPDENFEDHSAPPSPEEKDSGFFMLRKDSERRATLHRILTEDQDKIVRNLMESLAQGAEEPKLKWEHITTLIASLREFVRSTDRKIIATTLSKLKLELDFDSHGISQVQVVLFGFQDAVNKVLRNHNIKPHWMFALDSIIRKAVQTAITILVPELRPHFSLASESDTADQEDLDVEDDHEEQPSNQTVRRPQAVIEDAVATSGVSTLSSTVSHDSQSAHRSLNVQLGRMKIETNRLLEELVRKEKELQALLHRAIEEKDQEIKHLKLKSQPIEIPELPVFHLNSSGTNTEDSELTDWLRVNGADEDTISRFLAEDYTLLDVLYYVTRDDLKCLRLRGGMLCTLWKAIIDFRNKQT

BLK = molecular target: T2, BLK (Homo sapiens, UniProt P51451); design: method as in Bollag et al., 2010; settings: ref Bollag et al., 2010; read-out: Published biochemical IC50; cited from earlier work
T2 construct: purchased KINOMEscan (DiscoveRx), San Diego, CA
T2 sequence (P51451 whole entry): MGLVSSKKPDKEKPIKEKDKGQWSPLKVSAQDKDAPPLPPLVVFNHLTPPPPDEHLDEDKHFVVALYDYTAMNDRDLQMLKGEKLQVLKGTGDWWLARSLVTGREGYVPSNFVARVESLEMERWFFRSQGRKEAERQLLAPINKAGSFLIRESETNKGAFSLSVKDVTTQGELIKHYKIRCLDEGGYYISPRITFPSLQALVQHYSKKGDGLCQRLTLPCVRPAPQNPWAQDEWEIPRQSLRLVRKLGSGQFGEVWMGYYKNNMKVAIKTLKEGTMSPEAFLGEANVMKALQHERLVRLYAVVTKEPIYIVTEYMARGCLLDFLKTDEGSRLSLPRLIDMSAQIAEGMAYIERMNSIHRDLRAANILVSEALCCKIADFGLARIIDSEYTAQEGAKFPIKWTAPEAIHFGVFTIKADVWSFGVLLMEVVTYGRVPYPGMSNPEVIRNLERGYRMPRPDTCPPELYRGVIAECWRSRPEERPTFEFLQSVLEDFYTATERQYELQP

SMILES | suppression of UV-induced apoptosis (NHEK cells) | phospho-JNK expression in tumors vs control-treated mice (phospho-JNK) | cleaved caspase 3 expression in tumors vs control-treated mice (cleaved caspase 3) | IC50 (SRMS) | IC50 (ASK1 (MAP3K5)) | IC50 (BLK)
CCCS(=O)(=O)Nc1ccc(F)c(C(=O)c2c[nH]c3ncc(Cl)cc23)c1F [PLX4720] | at least 70% | significant decreases | significant decreases |  |  | 
CCCS(=O)(=O)Nc1ccc(F)c(C(=O)c2c[nH]c3ncc(-c4ccc(Cl)cc4)cc23)c1F [vemurafenib] |  |  |  | 18 nM | > 1000 nM | 547 nM

— article PMC3814616, “BRAF inhibitors suppress apoptosis through off-target inhibition of JNK signaling” (eLife, 2013)
